Values after ≈ are worked out from the molar mass of the structure shown. Read-outs that look alike come from different tables or passages of the source. Marks after values point to notes of the source that are not given here.

Consider 10 compounds from article PMC8154566, “Scaffold-Hopping Strategy on a Series of Proteasome Inhibitors Led to a Preclinical Candidate for the Treatment of Visceral Leishmaniasis” (Journal of Medicinal Chemistry, 2021).

One data set deals with LCK (Homo sapiens, UniProt P06239). Kind of data set: Kinase screen LCK. Type of data set: biochemical.
On the set-up of data set [1]: method as in PMID 30962368. To be noted: cited from earlier work.
The next data set deals with AuroraB (Homo sapiens, UniProt Q96GD4). Kind of data set: Kinase screen AuroraB. Type of data set: biochemical.
The subject of data set [2] is L. donovani amastigotes. Conditions: cited from earlier work.
A short description of data set [3]: Kinetic aqueous solubility by CLND. Type of data set: physicochemical. The method in brief:
(§1)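 Intramacrophage L. donovani amastigotes in differentiated THP-1 cells, run per an earlier protocol but with 96 h compound exposure instead of 72 h. Aqueous solubility also follows a previously described method.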

The conditions of data set [4]: Table 6; mouse liver microsomes; cited from earlier work. (Liver microsomes are vesicles of endoplasmic reticulum, rich in cytochrome P450 enzymes.)
For data set [5], the system named is THP-1 cells. To be noted: cited from earlier work.
On the set-up of data set [6]: method as in PMID 30962368. To be noted: dosed in rats at 300 mg/kg; cited from earlier work.
Another data set has as its target PI3Kγ (Homo sapiens, UniProt P48736). Briefly: Kinase screen PI3Kγ. Type of data set: biochemical.
Data set [7] can be described thus: Mouse liver microsomal intrinsic clearance. It is filed as in vitro ADME. To be noted: for Mouse CLi: mouse liver microsomes; for Cli (mouse, ml/min/g): supplementary csv.
Data set [8] in a line: FaSSIF (fasted state simulated intestinal fluid) solubility. It is filed as physicochemical.
Data set [9] deals with THP-1 cells. Briefly: THP-1 host cell read-out of the INMAC assay. It is filed as cell-based. Conditions: for EC50 / IC50: Homo sapiens. In a few lines:
as §1

The test system of data set [10] is L. donovani amastigotes. Kind of data set: INMAC assay: intramacrophage L. donovani in differentiated THP-1 cells. Type of data set: cell-based, Leishmania donovani. To be noted: for EC50 / IC50: Leishmania donovani; for EC50: THP-1; for loss of potency: INMAC, relative to compound 4; for IC50: THP-1, read-out: LdInMac pIC50 (converted). The method in brief:
as §1

Setting [11] is: supplementary csv, flagged as reported previously in the main tables.
Setting [12] is: Table 6, kinetic, CLND, read-out: Aq. solubility.
Setting [13] is: THP-1, Table 6, read-out: THP-1 pEC50 (converted).
Where [14] appears, read: THP-1, supplementary csv, read-out: THP1 pIC50 (converted).
Setting [15] is: supplementary csv, read-out: Aqueous Solubility.
Where [16] appears, read: Table 6, at least three replicates, SD ≤0.4, read-out: INMAC pEC50 (converted).
The mark [17] stands for this setting: THP-1, Table 2, read-out: THP-1 (pEC50) (converted).
The mark [18] stands for this setting: Table 2, kinetic, CLND, read-out: Aq. solubility.
Where [19] appears, read: Table 2, at least three replicates, SD ≤0.4, read-out: INMAC (pEC50) (converted).

Sequence of LCK (P06239 whole entry): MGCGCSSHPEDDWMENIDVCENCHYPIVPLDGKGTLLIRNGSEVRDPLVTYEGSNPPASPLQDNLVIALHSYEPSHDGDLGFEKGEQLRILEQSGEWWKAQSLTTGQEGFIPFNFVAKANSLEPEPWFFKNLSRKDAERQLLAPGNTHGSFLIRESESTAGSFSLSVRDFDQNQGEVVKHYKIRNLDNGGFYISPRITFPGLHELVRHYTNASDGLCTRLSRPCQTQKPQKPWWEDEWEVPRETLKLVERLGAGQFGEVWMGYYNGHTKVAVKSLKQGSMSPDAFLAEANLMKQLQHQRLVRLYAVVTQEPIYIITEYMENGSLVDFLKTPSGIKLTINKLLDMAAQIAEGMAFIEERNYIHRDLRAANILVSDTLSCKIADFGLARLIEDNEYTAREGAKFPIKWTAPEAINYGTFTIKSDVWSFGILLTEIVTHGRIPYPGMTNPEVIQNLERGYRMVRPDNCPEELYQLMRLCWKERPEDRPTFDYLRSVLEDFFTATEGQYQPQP
Sequence of PI3Kγ (P48736 whole entry): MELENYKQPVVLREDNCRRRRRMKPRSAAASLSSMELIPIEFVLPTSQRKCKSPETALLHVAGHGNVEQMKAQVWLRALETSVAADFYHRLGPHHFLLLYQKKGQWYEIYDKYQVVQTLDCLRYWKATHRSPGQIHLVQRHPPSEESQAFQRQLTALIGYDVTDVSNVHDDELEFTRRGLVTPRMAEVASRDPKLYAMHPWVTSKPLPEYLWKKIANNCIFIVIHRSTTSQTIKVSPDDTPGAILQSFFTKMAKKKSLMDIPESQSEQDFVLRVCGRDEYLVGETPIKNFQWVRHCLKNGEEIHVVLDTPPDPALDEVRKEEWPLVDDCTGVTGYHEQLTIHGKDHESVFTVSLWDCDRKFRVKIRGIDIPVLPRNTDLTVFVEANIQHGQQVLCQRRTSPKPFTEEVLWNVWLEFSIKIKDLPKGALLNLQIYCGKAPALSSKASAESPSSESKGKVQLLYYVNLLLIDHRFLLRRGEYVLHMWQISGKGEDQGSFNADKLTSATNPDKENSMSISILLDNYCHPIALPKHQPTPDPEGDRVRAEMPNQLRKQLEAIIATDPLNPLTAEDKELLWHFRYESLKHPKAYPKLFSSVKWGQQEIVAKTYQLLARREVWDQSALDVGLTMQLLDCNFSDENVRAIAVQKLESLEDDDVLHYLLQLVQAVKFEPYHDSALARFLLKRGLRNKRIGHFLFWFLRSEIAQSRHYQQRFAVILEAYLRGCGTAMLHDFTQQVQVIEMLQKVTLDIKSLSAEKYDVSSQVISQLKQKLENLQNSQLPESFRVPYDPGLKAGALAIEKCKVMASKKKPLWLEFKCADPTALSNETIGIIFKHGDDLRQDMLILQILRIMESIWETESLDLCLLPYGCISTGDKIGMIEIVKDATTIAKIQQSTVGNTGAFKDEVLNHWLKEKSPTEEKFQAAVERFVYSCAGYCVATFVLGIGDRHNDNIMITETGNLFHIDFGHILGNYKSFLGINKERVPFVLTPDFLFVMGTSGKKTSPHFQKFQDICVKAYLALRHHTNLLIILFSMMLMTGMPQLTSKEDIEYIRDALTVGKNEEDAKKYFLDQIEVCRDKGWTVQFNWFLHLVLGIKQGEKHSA
Sequence of AuroraB (Q96GD4 whole entry): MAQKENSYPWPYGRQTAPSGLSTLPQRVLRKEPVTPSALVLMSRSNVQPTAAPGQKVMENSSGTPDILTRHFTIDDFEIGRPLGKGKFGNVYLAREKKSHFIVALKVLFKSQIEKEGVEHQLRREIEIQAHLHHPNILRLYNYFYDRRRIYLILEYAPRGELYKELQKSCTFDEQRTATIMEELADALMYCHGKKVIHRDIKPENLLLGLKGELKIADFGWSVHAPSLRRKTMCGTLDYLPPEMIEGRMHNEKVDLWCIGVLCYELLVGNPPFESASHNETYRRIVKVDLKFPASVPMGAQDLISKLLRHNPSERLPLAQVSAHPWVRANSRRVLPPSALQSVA

The term solubility denotes the concentration that dissolves in the medium under given conditions. Take `O=C(Nc1ccc(F)c(-c2ccn3c(N4CCOCC4)cnc3n2)c1)N1CCCC1` [Compound 1]: the “pIC50 LCK” value on LCK is under 4.5. Moreover, in data set [1], the Ames assay result was “negative”. On AuroraB, the “pIC50 AuroraB” value is listed as under 4.5. In addition, the “INMAC pEC50” value with L. donovani amastigotes [2] (Table 5) is reported as 5.8. In addition, the “LdInMac pIC50” value with L. donovani amastigotes [2] (setting [11]) is 5.8. Also, the solubility in data set [3] (setting [12]) stood at 420 µM (≈ 172 µg/mL). The “Mouse CLi” value in data set [4] was 0.8^e mL/min/g. For the same compound, the “THP-1 pEC50” value in the data set with THP-1 cells [5] (Table 5) is on record as under 4.3. For the same compound, in the data set with THP-1 cells [5] (setting [11]), the “THP1 pIC50” value is listed as under 4.3. For the same compound, in data set [6], the predicted safety margin entry was “at least 37 fold”. Moreover, at PI3Kγ, the “pIC50 PI3Kγ” value is recorded as under 4.5.

On to `CC(C)c1cnc2nc(-c3cc(NC(=O)N4CCCC4)ccc3F)ccn12` [Compound 30, N-(4-Fluoro-3-(3-isopropylimidazo[1,2-a]pyrimidin-7-yl)phenyl)pyrrolidine-1-carboxamide], for which the “Mouse CLi” value in data set [7] (Table 6) was 4.6 mL/min/g. In addition, the “Cli (mouse, ml/min/g)” value in data set [7] was found to be 4.6 mL/min/g. Besides, in [8] (pH 6.5, Table 6), the solubility at 4 h is 71 µM (≈ 26.1 µg/mL). Further, the solubility is 70 µM (≈ 25.7 µg/mL) in data set [8] (supplementary csv), 231 µM (≈ 84.9 µg/mL) in data set [3] (setting [12]) and 240 µM (≈ 88.2 µg/mL) in data set [3] (setting [15]). Moreover, the EC50 in the data set on THP-1 cells [9] (setting [13]) was 50.1 µM; in the data set on L. donovani amastigotes [10] (setting [16]), 1.26 µM. In the data set on THP-1 cells [9] (setting [14]), the IC50 is 50.1 µM.

In general, Aqueous Solubility refers to how much of the substance goes into solution per volume. As for “(S)-N-(4-Fluoro-3-(3-(3-methylmorpholino)imidazo[1,2-a]pyrimidin-7-yl)phenyl)pyrrolidine-1-carboxamide [Compound 40]”, the “Mouse CLi” value in data set [7] (Table 6) turned out to be 1.8 mL/min/g. Besides, in data set [7], the “Cli (mouse, ml/min/g)” value was determined as 1.8 mL/min/g. The FaSSIF solubility in data set [8] (Table 6) is 1,578 μM; in [8] (supplementary csv) it was over 1000 µM. Further, in the data set with THP-1 cells [9] (Table 6), the “THP-1 pEC50” value is reported as 4.3. For the same compound, in the data set on THP-1 cells [9] (supplementary csv), the “THP1 pIC50” value is reported as 4.3. The solubility in data set [3] (setting [12]) came out at 345 µM. In addition, in [3] (supplementary csv), the “Aqueous Solubility” value worked out at 350 µM. Besides, the “INMAC pEC50” value in the data set on L. donovani amastigotes [10] (Table 6, at least three replicates, SD ≤0.4) was determined as 6.0. Also, the “LdInMac pIC50” value in the data set with L. donovani amastigotes [10] (supplementary csv) was found to be 6.

Consider `O=C(Nc1ccc(F)c(-c2ccn3c(N4CCC5(CCOC5)C4)cnc3n2)c1)N1CCCC1` (stereo not drawn) [Compound 44, N-(3-(3-(2-Oxa-7-azaspiro[4.4]nonan-7-yl)imidazo[1,2-a]pyrimidin-7-yl)-4-fluorophenyl)pyrrolidine-1-carboxamide], for which, in data set [7] (Table 6), the “Mouse CLi” value worked out at 3.7 mL/min/g. The “Cli (mouse, ml/min/g)” value in [7] was found to be 3.7 mL/min/g. Besides, the concentration in solution in [8] (pH 6.5, Table 6) (solubility at 4 h) came to 852 µM (≈ 384 µg/mL). The figures for the solubility in [8] (supplementary csv), in data set [3] (setting [12]) and in data set [3] (setting [15]) were 850 µM (≈ 383 µg/mL), 339 µM (≈ 153 µg/mL) and 340 µM (≈ 153 µg/mL), respectively. The results for the EC50 with THP-1 cells [9] (setting [13]) and with L. donovani amastigotes [10] (setting [16]) were 50.1 µM and 1.26 µM, respectively. Moreover, the IC50 in the data set with THP-1 cells [9] (setting [14]) is 50.1 µM.

Take `O=C(Nc1cc(-c2cn3cc(N4CCOCC4)cnc3n2)ncn1)N1CCCC1` [Compound 10, N-(6-(6-Morpholinoimidazo[1,2-a]pyrimidin-2-yl)pyrimidin-4-yl)pyrrolidine-1-carboxamide]: the “Mouse CLi” value in [7] (Table 2) was under 0.5 mL/min/g. In addition, the “Cli (mouse, ml/min/g)” value in [7] was under 0.5 mL/min/g. Moreover, the solubility was over 100 µM in data set [8] (Table 2), over 1000 µM in data set [8] (supplementary csv), at least 435 µM in data set [3] (setting [18]) and at least 440 µM in data set [3] (setting [15]). In data set [8] (pH 6.5, Table 2), the solubility at 4 h was 2050 µM (≈ 807 µg/mL). Moreover, the EC50 in the data set on THP-1 cells [9] (setting [17]) and in the data set with L. donovani amastigotes [10] (setting [19]) was over 50.1 µM throughout. The IC50 in the data set with THP-1 cells [9] (setting [14]) and in the data set on L. donovani amastigotes [10] was over 50.1 µM each time. In the data set with L. donovani amastigotes [10], the loss of potency was over 10 fold.

With `COc1ccc(NC(=O)N2CCCC2)cc1-c1cn2cc(N3CCOCC3)cnc2n1` [Compound 7, N-(4-Methoxy-3-(6-morpholinoimidazo[1,2-a]pyrimidin-2-yl)phenyl)pyrrolidine-1-carboxamide], the “Mouse CLi” value in [7] (Table 2) is under 0.5 mL/min/g. In [7], the “Cli (mouse, ml/min/g)” value is under 0.5 mL/min/g. The amount in solution in data set [8] (pH 6.5, Table 2) (solubility at 4 h) came to 83 µM (≈ 35.1 µg/mL). Further, the EC50 in the data set with THP-1 cells [9] (setting [17]) and in the data set on L. donovani amastigotes [10] (setting [19]) was over 50.1 µM in each case. Moreover, the IC50 in the data set on THP-1 cells [9] (setting [14]) and in the data set on L. donovani amastigotes [10] was over 50.1 µM each time. Also, the solubility was at least 425 µM in data set [3] (setting [18]) and at least 430 µM in data set [3] (setting [15]). Besides, in the data set with L. donovani amastigotes [10], the loss of potency is recorded as over 10 fold.

As to `O=C(Nc1ccc(F)c(-c2nc3ncc(N4CCOCC4)cn3n2)c1)N1CCCC1` [Compound 25, N-(4-Fluoro-3-(6-morpholino-[1,2,4]triazolo[1,5-a]pyrimidin-2-yl)phenyl)pyrrolidine-1-carboxamide], in [7] (Table 5), the “Mouse CLi” value was under 0.5 mL/min/g. The “Cli (mouse, ml/min/g)” value in data set [7] was 0.5 mL/min/g. Also, in [8] (pH 6.5, Table 5), the solubility at 4 h was 74 µM (≈ 30.4 µg/mL). Besides, the solubility in [8] (supplementary csv) is 73 µM (≈ 30 µg/mL); in data set [3] (Table 5, kinetic, CLND, read-out: Aq. solubility) it was 354 µM (≈ 146 µg/mL); in data set [3] (setting [15]), 400 µM (≈ 165 µg/mL). In the data set on THP-1 cells [9] (THP-1, read-out: THP1 pIC50 (converted)), the IC50 is over 50.1 µM. Besides, the EC50 in the data set on THP-1 cells [9] (THP-1, Table 5, read-out: THP-1 pEC50 (converted)) is over 50.1 µM; in the data set with L. donovani amastigotes [10] (Table 5, at least three replicates, SD ≤0.4, read-out: INMAC pEC50 (converted)), 0.631 µM.

In the case of `O=C(Nc1cnnc(-c2cn3cc(N4CCOCC4)cnc3n2)c1)N1CCCC1` [Compound 13, N-(6-(6-Morpholinoimidazo[1,2-a]pyrimidin-2-yl)pyridazin-4-yl)pyrrolidine-1-carboxamide], in data set [7] (Table 2), the “Mouse CLi” value is on record as under 0.5 mL/min/g. Further, in data set [7], the “Cli (mouse, ml/min/g)” value was under 0.5 mL/min/g. Further, the solubility was over 100 µM in data set [8] (Table 2), 290 µM (≈ 114 µg/mL) in [8] (supplementary csv), 355 µM (≈ 140 µg/mL) in [3] (setting [18]) and 360 µM (≈ 142 µg/mL) in data set [3] (setting [15]). The solubility at 4 h in data set [8] (pH 6.5, Table 2) is 286 µM (≈ 113 µg/mL). For the same compound, the EC50 in the data set on THP-1 cells [9] (setting [17]) and in the data set with L. donovani amastigotes [10] (setting [19]) was over 50.1 µM each time. In addition, the IC50 with THP-1 cells [9] (setting [14]) and in the data set with L. donovani amastigotes [10] was over 50.1 µM throughout. The loss of potency in the data set with L. donovani amastigotes [10] is given as over 10 fold.

Regarding `CC1CN(c2cnc3nc(-c4cc(NC(=O)N5CCCC5)ccc4F)ccn23)CCO1` (stereo not drawn) [Compound 38, N-(4-Fluoro-3-(3-(2-methylmorpholino)imidazo[1,2-a]pyrimidin-7-yl)phenyl)pyrrolidine-1-carboxamide], the “Mouse CLi” value in [7] (Table 6) is recorded as 1.7 mL/min/g. Also, in data set [7], the “Cli (mouse, ml/min/g)” value amounted to 1.7 mL/min/g. In addition, the solubility at 4 h in data set [8] (pH 6.5, Table 6) was 252 µM (≈ 107 µg/mL). Also, the solubility in data set [8] (supplementary csv) is 250 µM (≈ 106 µg/mL); in data set [3] (setting [12]), 248 µM (≈ 105 µg/mL); in [3] (setting [15]), 250 µM (≈ 106 µg/mL). For the same compound, the EC50 was 50.1 µM in the data set on THP-1 cells [9] (setting [13]) and 0.794 µM with L. donovani amastigotes [10] (setting [16]). Moreover, the IC50 in the data set with THP-1 cells [9] (setting [14]) was 50.1 µM.

On to `O=C(Nc1cccc(-c2nc3ncccc3o2)c1)c1ccco1` [Compound 3], for which the “INMAC pEC50” value in the data set with L. donovani amastigotes [2] (Table 3) is given as 5.2. Besides, the “THP-1 pEC50” value with THP-1 cells [5] (Table 3) is under 4.3.
